Series [1] is described as follows: logD(7.4) determination (n-octanol / phosphate buffer distribution). It counts as physicochemical. As to conditions: n-octanol / 0.05 M phosphate buffer pH 7.4; mean ± SD. On the procedure: Since high lipophilicity of peptidic radiotracers can lead to a high plasma protein binding, resulting in unspecific organ and high liver uptakes, thus negatively impact tumor visualization, the lipophilicity of the HBPLs was determined to get an approximate estimation of the in vivo biodistribution behavior of the radioligands. Therefore, the logD(7.4) values of the SiFAlin-modified HBPLs [^18F]1–[^18F]6 were determined via their distribution coefficient between n-octanol and phosphate buffer at pH 7.4.
The radiotracer solutions were first diluted with 0.9% NaCl solution to give a final EtOH concentration of <10%. A total of 5 MBq of the respective radiotracer in solution was added to 1.6 mL of a mixture of n-octanol and 0.05 M phosphate buffer (pH = 7.4) (v/v, 1/1), and the solution was vigorously shaken for 5 min. Subsequently, the phases were separated by centrifugation at 13.4 rpm for 2 min, and 100 μL of organic and aqueous phases were collected. The activity of each sample was measured using a gamma counter. The lipophilicity of each compound was determined in triplicate in three independent experiments.

Series [2] can be described thus: Stability of radiotracers in human serum (radio-HPLC). As to conditions: 37 °C, 120 min, mean ± SD, read-out: Stability: intact radiotracer after 120 min of incubation in human serum. It counts as in vitro ADME. The protocol: In addition to the investigation of the radiotracers’ lipophilicity, their stability in human serum was evaluated in order to determine possible stability issues of the newly developed agents. For this purpose, the respective ^18F-labeled HBPLs were incubated in human serum at 37 °C for 120 min. The results of these experiments are summarized in Table 1, and the corresponding radio-HPLC chromatograms for [^18F]2 as representative examples for all compounds studied are depicted in Figure 3A (see Supplementary Materials, Figure S91 for the results obtained for the other radioligands). In Figure 3B, the portions of intact radiotracer over the course of the stability experiments are depicted.
The radiotracer solutions were first diluted with 0.9% NaCl solution to give a final EtOH concentration of <10%. Then, 6 × 25 μL radiotracer solution was added to 6 × 100 μL human serum and incubated at 37°C for 120 min. At defined time points (5, 15, 30, 60, 90 and 120 min), 125 μL EtOH was added to one of the mixtures and the precipitation of serum proteins was supported by ice-cooling for 2 min. After centrifugation at 13.4 rpm for 2 min, the supernatant was analyzed by analytical radio-HPLC (0–100% MeCN + 0.1% TFA in 5 min). The experiment was performed for each compound trice by three independent experiments.

Four molecules from paper PMC8228600, “Design, Synthesis, In Vitro and In Vivo Evaluation of Heterobivalent SiFAlin-Modified Peptidic Radioligands Targeting Both Integrin αvβ3 and the MC1 Receptor—Suitable for the Specific Visualization of Melanomas?” (Pharmaceuticals, 2021) can be followed below.

One may read the logD as lipophilicity at a set pH, counting ionised and neutral species. A higher logD goes with a more lipophilic compound. Consider `CCCC[C@H](NC(=O)CNC(=O)CNC(=O)COCC(=O)NCCCN(CCCNC(=O)COCC(=O)NCCCC[C@@H]1NC(=O)[C@@H](Cc2ccccc2)NC(=O)[C@H](CC(=O)O)NC(=O)CNC(=O)[C@H](CCCNC(=N)N)NC1=O)CC(=O)N[C@@H](CCCCNC(=O)CCC[N+](C)(C)Cc1ccc([Si](F)(C(C)(C)C)C(C)(C)C)cc1)C(N)=O)C(=O)N[C@H]1CC(=O)NCCCC[C@@H](C(N)=O)NC(=O)[C@H](Cc2c[nH]c3ccccc23)NC(=O)[C@H](CCCNC(=N)N)NC(=O)[C@@H](Cc2ccccc2)NC(=O)[C@H](Cc2c[nH]cn2)NC1=O` [[^18F]5], for which the logD in series [1] is -1.21 ± 0.01. Besides, the remaining at 2 h in series [2] amounted to 83.2 ± 2.4%.
For `CCCC[C@H](NC(=O)CNC(=O)CNC(=O)CCOCCOCCOCCOCCOCCOCCC(=O)NCCCN(CCCNC(=O)CCOCCOCCOCCOCCOCCOCCC(=O)NCCCC[C@@H]1NC(=O)[C@@H](Cc2ccccc2)NC(=O)[C@H](CC(=O)O)NC(=O)CNC(=O)[C@H](CCCNC(=N)N)NC1=O)CC(=O)N[C@@H](CCCCNC(=O)CCC[N+](C)(C)Cc1ccc([Si](F)(C(C)(C)C)C(C)(C)C)cc1)C(N)=O)C(=O)N[C@H]1CC(=O)NCCCC[C@@H](C(N)=O)NC(=O)[C@H](Cc2c[nH]c3ccccc23)NC(=O)[C@H](CCCNC(=N)N)NC(=O)[C@@H](Cc2ccccc2)NC(=O)[C@H](Cc2c[nH]cn2)NC1=O` [[^18F]3] the same measures were -1.15 ± 0.01 and 81.4 ± 2.9%.
For `CCCC[C@H](NC(=O)CNC(=O)CNC(=O)CCOCCOCCC(=O)NCCCN(CCCNC(=O)CCOCCOCCC(=O)NCCCC[C@@H]1NC(=O)[C@@H](Cc2ccccc2)NC(=O)[C@H](CC(=O)O)NC(=O)CNC(=O)[C@H](CCCNC(=N)N)NC1=O)CC(=O)N[C@@H](CCCCNC(=O)CCC[N+](C)(C)Cc1ccc([Si](F)(C(C)(C)C)C(C)(C)C)cc1)C(N)=O)C(=O)N[C@H]1CC(=O)NCCCC[C@@H](C(N)=O)NC(=O)[C@H](Cc2c[nH]c3ccccc23)NC(=O)[C@H](CCCNC(=N)N)NC(=O)[C@@H](Cc2ccccc2)NC(=O)[C@H](Cc2c[nH]cn2)NC1=O` [[^18F]1] the same measures were -1.08 ± 0.07 and 87 ± 2.3%.
In the same order, the values of `CCCC[C@H](NC(=O)CNC(=O)CNC(=O)[C@H](CCC(=O)O)NC(=O)CNC(=O)[C@H](CCC(=O)O)NC(=O)CNC(=O)[C@H](CCC(=O)O)NC(=O)C(=O)NCCCN(CCCNC(=O)C(=O)N[C@@H](CCC(=O)O)C(=O)NCC(=O)N[C@@H](CCC(=O)O)C(=O)NCC(=O)N[C@@H](CCC(=O)O)C(=O)NCCCC[C@@H]1NC(=O)[C@@H](Cc2ccccc2)NC(=O)[C@H](CC(=O)O)NC(=O)CNC(=O)[C@H](CCCNC(=N)N)NC1=O)CC(=O)N[C@@H](CCCCNC(=O)CCC[N+](C)(C)Cc1ccc([Si](F)(C(C)(C)C)C(C)(C)C)cc1)C(N)=O)C(=O)N[C@H]1CC(=O)NCCCC[C@@H](C(N)=O)NC(=O)[C@H](Cc2c[nH]c3ccccc23)NC(=O)[C@H](CCCNC(=N)N)NC(=O)[C@@H](Cc2ccccc2)NC(=O)[C@H](Cc2c[nH]cn2)NC1=O` [[^18F]6] are -1.52 ± 0.01 and 82.7 ± 1.8%.
